From patent US20110039762A1, “TARGETED ANTIMICROBIAL MOIETIES” (C3 JIAN, INC., priority 2009, published 2011)
“Also recorded” adds a separate entry of the source. Square brackets hold non-standard residues; d marks the D form. Ends that are not written are not given here. dOrn = NCCC[C@@H](N)C(=O)O

System: microorganisms (e.g., bacteria, yeasts, fungi)
Assay: Targeting peptide binding to target microorganisms (Table 3)
Details: for Target(s) / Target(s) (microorganisms bound by the targeting peptide): preferably 1x PBS; for Target(s) (microorganisms bound by the targeting peptide): peptide binding in aqueous buffers varied by peptide solubility
[1] = microorganism the targeting peptide binds, binding in aqueous buffers varied by peptide solubility
[2] = microorganism(s) the targeting peptide binds, binding in aqueous buffers depending on peptide solubility

Substance	Target(s) [1]	Target(s) [2]	other results
1T-287 (KGYPLPFQYRLNNH; Peptide with targeting and/or antimicrobial activity) [Peptide 1T-287]	P. gingivalis; also recorded: T. denticola; also recorded: S. gordonii; also recorded: S. mitis; also recorded: S. mutans; also recorded: S. oralis; also recorded: S. salivarious; also recorded: S. sanguinis	–	–
1T-288 (RWVGGEPSADIYLSAKDTKT; Peptide with targeting and/or antimicrobial activity) [Peptide 1T-288]	F. nucleatum; also recorded: S. gordonii; also recorded: S. salivarious; also recorded: S. sanguinis	–	–
1T-289 (EPSADIYLSAKDTKT; Peptide with targeting and/or antimicrobial activity) [Peptide 1T-289]	F. nucleatum; also recorded: P. gingivalis; also recorded: S. gordonii; also recorded: S. mitis; also recorded: S. mutans; also recorded: S. oralis; also recorded: S. sanguinis	–	–
1T-291 (DMKIIKLYIKILSFLFIKYCNKKLNSVKLKA; Peptide with targeting and/or antimicrobial activity) [Peptide 1T-291]	A. naeslundii; also recorded: F. nucleatum; also recorded: P. gingivalis; also recorded: T. denticola; also recorded: S. mitis; also recorded: S. mutans; also recorded: S. oralis	–	–
1T-294 (YDKIADGVFKIGKRGVL; Peptide with targeting and/or antimicrobial activity) [Peptide 1T-294]	T. denticola	–	–
1T-295 (KYKLKKIIL; Peptide with targeting and/or antimicrobial activity) [Peptide 1T-295]	S. mitis; also recorded: S. salivarious; also recorded: S. sanguinis	–	–
1T-297 (RSLRLNNALTKLPKLWYNRIKEAFYAYNDYDK; Peptide with targeting and/or antimicrobial activity) [Peptide 1T-297]	A. naeslundii; also recorded: F. nucleatum; also recorded: T. denticola; also recorded: S. mitis; also recorded: S. mutans; also recorded: S. oralis	–	–
1T-301 (SKLPRVLDASLKL; Peptide with targeting and/or antimicrobial activity) [Peptide 1T-301]	F. nucleatum; also recorded: S. gordonii; also recorded: S. sanguinis	–	–
1T-304 (STAGEASRRTASEASRRTAAKLRG; Peptide with targeting and/or antimicrobial activity) [Peptide 1T-304]	P. gingivalis	–	–
AIEGVIKKGACFKLLRHEMF [PF-167]	–	S. epidermidis and E. coli and C. albicans and MRSA and C. jeikeium and C. jejuni	–
CHA0 (D[dOrn]KTAA[dOrn]K; not fully specified (bridges))	P. fluorescens	–	–
DAANEA [BL-1]	–	–	bacterial binding (data not shown): no bacterial binding
HIKETR (Peptide with targeting and/or antimicrobial activity) [PF-222]	–	S. epidermidis	–
MKKLVAALAVIVILTGCVYDPVNYDKIHDQEFQDHLRQNG [PF-252]	–	S. mutans	–
MLTSRKKRLKKIVEEQNKKDESI [PF-336]	–	S. mutans; also recorded: E. coli	–
PEIIKIVSGLL [PF-758]	–	–	Target(s) (microorganisms bound by the targeting peptide): S. epidermidis and M. luteus and E. coli and MRSA and S. pneumoniae and E. faecalis and C. jeikeium
PF670 (TVIVAPMHSGV; Peptide with targeting and/or antimicrobial activity)	–	–	Target(s) (microorganisms bound by the targeting peptide): Mycobacteria spp
PF-014 (HPTDNKHN; Peptide with targeting and/or antimicrobial activity)	E. coli; also recorded: C. jeikeium	–	–
PF-016 (RKQYDDLSFNFLY; Peptide with targeting and/or antimicrobial activity)	S. epidermidis; also recorded: E. faecalis; also recorded: C. jeikeium	–	–
PF-018 (YYKTYFKEV; Peptide with targeting and/or antimicrobial activity)	E. coli; also recorded: C. jeikeium	–	–
PF-038 (MAYKDEGKETKFAVKGYKD; Peptide with targeting and/or antimicrobial activity)	M. luteus	–	–
PF-039 (MLEEKNKSL; Peptide with targeting and/or antimicrobial activity)	P. mirabilis; also recorded: C. jeikeium	–	–
PF-044 (KLKKYIHKPD; Peptide with targeting and/or antimicrobial activity)	S. epidermidis and M. luteus and MRSA and C. jeikeium	–	–
PF-047 (NQEPSLQQDKEQKDNKG; Peptide with targeting and/or antimicrobial activity)	S. mutans	–	–
PF-050 (SYYLKRREEKGK; Peptide with targeting and/or antimicrobial activity)	S. epidermidis; also recorded: M. luteus; also recorded: E. coli; also recorded: C. jeikeium	–	–
PF-054 (VSISRFIGGGHVFNGNNKRNL; Peptide with targeting and/or antimicrobial activity)	S. epidermidis; also recorded: E. coli	–	–
PF-055 (GHVFNGNNKRNL; Peptide with targeting and/or antimicrobial activity)	S. mutans	–	–

Substance	Target(s) [1]	Target(s) [2]	other results
PF-060 (HSSHL; Peptide with targeting and/or antimicrobial activity)	E. coli; also recorded: C. albicans; also recorded: C. jeikeium	–	–
PF-062 (MKKKRINNDILGRMIYSSSIDKRNLYNLKYYE; Peptide with targeting and/or antimicrobial activity)	S. epidermidis and M. luteus and E. coli and P. aeruginosa and MRSA and S. pneumoniae and E. faecalis and C. jeikeium	–	–
PF-097 (QPTQGEQGTRPRRPTPMRGLLI; Peptide with targeting and/or antimicrobial activity)	–	C. jeikeium	–
PF-101 (DPVPERQEQACACHRTAKPGK; Peptide with targeting and/or antimicrobial activity)	–	S. mutans	–
PF-104 (ERTAVNDLWI; Peptide with targeting and/or antimicrobial activity)	–	MRSA and C. jeikeium	–
PF-130 (LQRSDEESMPRRHEKYS; Peptide with targeting and/or antimicrobial activity)	–	E. faecalis; also recorded: C. jeikeium; also recorded: C. jejuni	–
PF-131 (RRAAARTKGNRR; Peptide with targeting and/or antimicrobial activity)	–	S. epidermidis and E. coli and MRSA and C. jeikeium	–
PF-132 (RPGDGAAEQGRSR; Peptide with targeting and/or antimicrobial activity)	–	S. epidermidis; also recorded: C. jeikeium	–
PF-134 (GKAMKRQDCSAL; Peptide with targeting and/or antimicrobial activity)	–	S. epidermidis; also recorded: C. jeikeium	–
PF-138 (AVHHSLLFR; Peptide with targeting and/or antimicrobial activity)	–	S. epidermidis and M. luteus and P. mirabilis and E. coli and C. albicans and MRSA and C. jeikeium and C. jejuni	–
PF-141 (VVRRFQGM; Peptide with targeting and/or antimicrobial activity)	–	S. epidermidis and M. luteus and C. albicans and MRSA and C. jeikeium	–
PF-142 (GIDRGCQAAR; Peptide with targeting and/or antimicrobial activity)	–	S. mutans	–
PF-146 (GCGKRRIITKSASRDTR; Peptide with targeting and/or antimicrobial activity)	–	S. epidermidis and M. luteus and P. aeruginosa and C. albicans and MRSA and C. jeikeium	–
PF-147 (RRPRRRRSGHGQSASAA; Peptide with targeting and/or antimicrobial activity)	–	S. epidermidis and M. luteus and MRSA	–
PF-150 (EIQAKGTG; Peptide with targeting and/or antimicrobial activity)	–	S. epidermidis and MRSA	–
PF-151 (EEYPARVPLSGEDVTEARRH; Peptide with targeting and/or antimicrobial activity)	–	S. epidermidis and MRSA and E. faecalis and C. jeikeium	–
PF-152 (VGYFIWKDSHSRKG; Peptide with targeting and/or antimicrobial activity)	–	S. epidermidis and C. albicans and MRSA and E. faecalis and C. jeikeium	–
PF-154 (GIKKSKHPSTDDYVVKTTIDSL; Peptide with targeting and/or antimicrobial activity)	–	S. mutans	–
PF-155 (GRYGDDSKERQGRAQ; Peptide with targeting and/or antimicrobial activity)	–	C. jeikeium	–
PF-158 (VRLESRPADLPE; Peptide with targeting and/or antimicrobial activity)	–	S. epidermidis	–
PF-159 (TMAFVEKAQLRVPVGDDLPV; Peptide with targeting and/or antimicrobial activity)	–	S. epidermidis	–
PF-160 (SFHASLTKNEKPIKSTG; Peptide with targeting and/or antimicrobial activity)	–	S. epidermidis	–
PF-161 (RGRALASTATTRPARRRR; Peptide with targeting and/or antimicrobial activity)	–	S. epidermidis; also recorded: M. luteus; also recorded: E. coli; also recorded: C. jejuni	–
PF-162 (GIRRLHSVENLNREISHRMAGLR; Peptide with targeting and/or antimicrobial activity)	–	S. epidermidis and MRSA	–
PF-163 (TSWLRAAERQEIGEPTKTFGEKTTSL; Peptide with targeting and/or antimicrobial activity)	–	S. epidermidis	–
PF-165 (GPVSVVASLRRGTTVQRHSQNNHNKGKP; Peptide with targeting and/or antimicrobial activity)	–	MRSA and C. jejuni	–
PF-166 (SKAVSRKRSI; Peptide with targeting and/or antimicrobial activity)	–	E. coli; also recorded: C. jeikeium	–
